# Target: PARP1 (Homo sapiens (Human), UniProt P09874)
# Experiment: PARP enzyme activity assay (PARP1 chemiluminescent assay kit)
# Assay type: biochemical
# Details: enzyme inhibitory activity, read-out: PARP-1 IC50
# Description: Experimental Materials: The PARP1 assay kit was purchased from BPS Bioscience, USA, specifically the 384-well chemiluminescent assay kit (Catalog No.: #80551).
# Experimental Principle: PARP can catalyze the transfer of ADP-ribose residues from NAD+ to target substrates, thereby modifying proteins through ribosylation. This experiment measures PARP1 enzyme activity by detecting the poly(ADP-ribosylation) of histones by PARP1.
# Preparation of Reagents and Test Compounds: The 10× assay buffer included in the kit was diluted to 1× with distilled water. The test compound (stock concentration of 10 mM) was diluted to 10 μM with a DMSO solution and then serially diluted in a 1:3 ratio. The serially diluted compounds were further diluted 10-fold with the 1× assay buffer.
# Experimental Method: The procedure was carried out according to the kit's instructions:
# 1. The 5× histone mixture was diluted to 1× with PBS, and 25 μL was added to each well of a 384-well plate, incubating overnight at 4° C.
# 2. After incubation, 100 μL of PBST (0.05% Tween 20) was added to each well for washing, repeated three times. Then, 100 μL of blocking solution was added to each well and incubated at room temperature for 90 minutes.
# 3. After incubation, the wells were washed three times with PBST, and then 1.25 μL of 10× assay buffer, 1.25 μL of 10×PARP assay mixture, 2.5 μL of activation DNA (5×), and 7.5 μL of distilled water were added to each well.
# 4. […] The positive control group and the negative control group were added with 1× assay buffer containing the same concentration of DMSO.
# 5. Next, 10 μL of 2.5 ng/μL PARP1 enzyme was added to the test compound and positive control groups, while 10 μL of 1× assay buffer was added to the negative control group, and the mixture was incubated at room temperature for 60 minutes.
# 6. Streptavidin-HRP was diluted 1:50 with the blocking solution. After incubation, the plate was washed three times with PBST, and 25 μL of the diluted streptavidin-HRP solution was added to each well, incubating at room temperature for 30 minutes.
# 7. After incubation, the plate was washed three times with PBST, and 50 μL of the mixed substrate A and substrate B in equal volumes was added. The luminescence signal was immediately read on a Synergy HTX multi-mode reader.
# (§1) 8. Data analysis was performed using GraphPad Prism 8.0 software. The inhibition rate %=100*(average luminescence signal of the positive control group−luminescence signal of the compound)/(average luminescence signal of the positive control group−average luminescence signal of the negative control group). The IC50 value was obtained by plotting the logarithm of the compound concentration against the percentage inhibition rate.
# Chain of PARP1 (P09874 whole entry): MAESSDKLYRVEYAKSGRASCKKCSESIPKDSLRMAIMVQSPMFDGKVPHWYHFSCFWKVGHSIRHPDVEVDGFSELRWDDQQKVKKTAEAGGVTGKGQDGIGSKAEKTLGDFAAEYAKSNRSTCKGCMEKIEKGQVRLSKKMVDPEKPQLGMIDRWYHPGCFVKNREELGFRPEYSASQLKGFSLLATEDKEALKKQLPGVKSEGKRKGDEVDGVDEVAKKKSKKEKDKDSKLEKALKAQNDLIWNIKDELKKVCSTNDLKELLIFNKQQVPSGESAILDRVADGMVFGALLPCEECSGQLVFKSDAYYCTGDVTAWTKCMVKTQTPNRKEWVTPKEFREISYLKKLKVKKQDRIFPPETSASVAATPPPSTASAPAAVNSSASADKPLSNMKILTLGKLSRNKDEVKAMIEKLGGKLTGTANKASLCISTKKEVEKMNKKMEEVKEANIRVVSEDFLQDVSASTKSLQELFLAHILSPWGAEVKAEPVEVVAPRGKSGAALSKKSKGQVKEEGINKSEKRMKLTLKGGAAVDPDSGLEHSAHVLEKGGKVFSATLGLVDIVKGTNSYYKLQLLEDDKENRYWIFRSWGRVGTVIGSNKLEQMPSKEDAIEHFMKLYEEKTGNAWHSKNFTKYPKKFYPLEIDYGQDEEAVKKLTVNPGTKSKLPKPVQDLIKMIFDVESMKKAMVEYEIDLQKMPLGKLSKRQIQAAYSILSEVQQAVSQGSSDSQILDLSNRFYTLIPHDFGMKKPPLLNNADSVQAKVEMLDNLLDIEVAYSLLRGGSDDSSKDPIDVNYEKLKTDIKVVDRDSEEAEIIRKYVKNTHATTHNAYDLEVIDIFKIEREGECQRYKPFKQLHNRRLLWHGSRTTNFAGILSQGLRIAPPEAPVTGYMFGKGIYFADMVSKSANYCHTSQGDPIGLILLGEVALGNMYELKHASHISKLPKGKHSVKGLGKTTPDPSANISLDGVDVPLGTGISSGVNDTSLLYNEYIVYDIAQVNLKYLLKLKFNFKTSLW
row,SMILES,IC50 [nM]
1,"CNC(=O)c1ccc(N2CC3CCC(C2)N3Cc2cnc3c(C)c(C(F)(F)F)c(=O)[nH]c3c2)cn1 [Compound 12, N-methyl-5-(8-((8-methyl-6-oxo-7-(trifluoromethyl)-5,6-dihydro-1,5-naphthyridin-3-yl)methyl)-3,8-diazabicyclo[3.2.1]octan-3-yl)picolinamide]",2.25
2,"Cc1c(C(F)(F)F)c(=O)[nH]c2cc(CN3CCN(c4ccc5[nH]c(=O)[nH]c5n4)CC3)cnc12 [Compound 18, 4-methyl-7-((4-(2-oxo-2,3-dihydro-1H-imidazo[4,5-b]pyridin-5-yl)piperazin-1-yl)methyl)-3-(trifluoromethyl)-1,5-naphthyridin-2(1H)-one]",15.9
3,"CNC(=O)c1ccc(N2CCN(Cc3cnc4c(C)c(C(F)(F)F)c(=O)[nH]c4c3)C(CC#N)C2)cn1 (stereo not shown) [Compound 3, 5-(3-(cyanomethyl)-4-((8-methyl-6-oxo-7-(trifluoromethyl)-5,6-dihydro-1,5-naphthyridin-3-yl)methyl)piperazin-1-yl)-N-methylpicolinamide]",1.53
4,"Cc1c(C(F)(F)F)c(=O)[nH]c2cc(CN3CCN(c4ncc(C(F)(F)F)cn4)CC3)cnc12 [Compound 19, 4-methyl-3-(trifluoromethyl)-7-((4-(5-(trifluoromethyl)pyrimidin-2-yl)piperazin-1-yl)methyl)-1,5-naphthyridin-2(1H)-one]",5.48

# Tested on: MDA-MB-436 breast cancer cells
# Experiment: Cell proliferation assay, MDA-MB-436
# Assay type: cell-based
# Details: Homo sapiens, MDA-MB-436, 168 h; proliferation, 7 days; read-out: MDA-MB-436 Cell IC50
# Description: Experimental Materials: MDA-MB-436 or UWB1.289 cell lines were purchased from Cobioer Biosciences Co. Ltd. (Nanjing, China). The STR identification results were a complete match, and mycoplasma testing was negative. MDA-MB-436 cells were cultured in DMEM complete medium containing 10% fetal bovine serum, 1% penicillin-streptomycin, 1% insulin, and 16 μg/mL glutathione; UWB1.289 cells were cultured in RMPI1640 complete medium containing 10% fetal bovine serum and 1% penicillin-streptomycin.
# 1. MDA-MB-436 or UWB1.289 cells were cultured in the aforementioned medium (culture conditions: 37° C., 5.0% CO2 in air) until they reached the logarithmic growth phase. The cells were then digested with trypsin containing 0.25% EDTA, centrifuged at 1000 rpm, and the supernatant was discarded. Cell culture medium was added, and the cell suspension was adjusted to 2×10^4/mL after counting. 135 μL of the cell suspension per well was taken and cultured in a 96-well cell culture plate for 16 hours (culture conditions: 37° C., 5.0% CO2 in air).
# 2. The test compounds, stored at a concentration of 10 mM, were diluted 2.5 times with DMSO and then serially diluted in a 1:3 gradient (9 gradients). The gradient-diluted samples were further diluted 40 times with serum-free medium, and 15 μL of each was added to the 96-well cell culture plate. The positive control group received serum-free medium containing the same concentration of DMSO, and the negative control group received medium without cells. The cells were then cultured for an additional 7 days.
# 3. After the culture period, the cell culture plate was placed at room temperature for 30 minutes. Then, 100 μL of CellCounting-Lite 2.0 reagent (Vazyme, #DD1101) was added to each well, mixed thoroughly, and incubated in the dark at room temperature for 10 minutes. The luminescence signal was read using a Synergy HTX multi-mode reader.
# as §1, with “4. Data” for “8. Data”, “rate (%) was calculated as 100*(average” for “rate %=100*(average”
row,SMILES,IC50 [nM]
1,"CNC(=O)c1ccc(N2CCN(Cc3cnc4c(C)c(C(F)(F)F)c(=O)[nH]c4c3)C[C@H]2C#N)cn1 [Compound 86, (S)-5-(2-cyano-4-((8-methyl-6-oxo-7-(trifluoromethyl)-5,6-dihydro-1,5-naphthyridin-3-yl)methyl)piperazin-1-yl)-N-methylpicolinamide]",14.8
2,"CNC(=O)c1ccc(C2=CCN(Cc3cnc4c(C)c(C(F)(F)F)c(=O)[nH]c4c3)CC2)nc1 [Compound 82, N-methyl-1′-((8-methyl-6-oxo-7-(trifluoromethyl)-5,6-dihydro-1,5-naphthyridin-3-yl)methyl)-1′,2′,3′,6′-tetrahydro-[2,4′-bipyridine]-5-carboxamide]",5.83
3,"CNC(=O)c1ccc(N2CCN(Cc3cnc4c(F)c(C)c(=O)[nH]c4c3)CC2)cn1 [Compound 103, 5-(4-((8-fluoro-7-methyl-6-oxo-5,6-dihydro-1,5-naphthyridin-3-yl)methyl)piperazin-1-yl)-N-methylpicolinamide]",3.76
4,"CNC(=O)c1ccc(N2CCN(Cc3ccc4c(F)c(C)c(=O)[nH]c4c3)CC2)cn1 [Compound 94, 5-(4-((4-fluoro-3-methyl-2-oxo-1,2-dihydroquinolin-7-yl)methyl)piperazin-1-yl)-N-methylpicolinamide]",5.69
5,"Cc1c(C(F)(F)F)c(=O)[nH]c2cc(CN3CCN(c4ccc(C(=O)NCCO)nc4)CC3)cnc12 [Compound 96, N-(2-hydroxyethyl)-5-(4-((8-methyl-6-oxo-7-(trifluoromethyl)-5,6-dihydro-1,5-naphthyridin-3-yl)methyl)piperazin-1-yl)picolinamide]",9.34
6,"CNC(=O)c1ccc(C2=C(C)CN(Cc3cnc4c(C)c(C(F)(F)F)c(=O)[nH]c4c3)CC2)cn1 [Compound 81, N,5′-dimethyl-1′-((8-methyl-6-oxo-7-(trifluoromethyl)-5,6-dihydro-1,5-naphthyridin-3-yl)methyl)-1′,2′,3′,6′-tetrahydro-[3,4′-bipyridine]-6-carboxamide]",13.2
7,"Cc1c(C(F)(F)F)c(=O)[nH]c2cc(CN3CCN(c4ccc(C(=O)NCC(F)(F)F)nc4)CC3)cnc12 [Compound 97, 5-(4-((8-methyl-6-oxo-7-(trifluoromethyl)-5,6-dihydro-1,5-naphthyridin-3-yl)methyl)piperazin-1-yl)-N-(2,2,2-trifluoroethyl)picolinamide]",2.12
8,"CCNC(=O)c1ccc(N2CCN(Cc3cnc4c(C)c(C(F)(F)F)c(=O)[nH]c4c3)CC2)cn1 [Compound 98, N-ethyl-5-(4-((8-methyl-6-oxo-7-(trifluoromethyl)-5,6-dihydro-1,5-naphthyridin-3-yl)methyl)piperazin-1-yl)picolinamide]",1.22
9,"CNC(=O)c1ccc(N2CCN(Cc3cnc4c(C)c(C(F)(F)F)c(=O)[nH]c4c3F)CC2)cn1 [Compound 101, 5-(4-((4-fluoro-8-methyl-6-oxo-7-(trifluoromethyl)-5,6-dihydro-1,5-naphthyridin-3-yl)methyl)piperazin-1-yl)-N-methylpicolinamide]",8.99
10,"CNC(=O)c1ccc(N2CCN(Cc3cnc4c(C)c(C(F)F)c(=O)[nH]c4c3)C[C@H]2C)cn1 [Compound 105, (R)-5-(4-((7-(difluoromethyl)-8-methyl-6-oxo-5,6-dihydro-1,5-naphthyridin-3-yl)methyl)-2-methylpiperazin-1-yl)-N-methylpicolinamide]",4.93
11,"CNC(=O)c1ccc(C2=CCN(Cc3cnc4c(C)c(C(F)(F)F)c(=O)[nH]c4c3)CC2C)cn1 (stereo not shown) [Compound 80, N,3′-dimethyl-1′-((8-methyl-6-oxo-7-(trifluoromethyl)-5,6-dihydro-1,5-naphthyridin-3-yl)methyl)-1′,2′,3′,6′-tetrahydro-[3,4′-bipyridine]-6-carboxamide]",13.9
12,"[2H]C([2H])([2H])NC(=O)c1ccc(N2CCN(Cc3cnc4c(C)c(C(F)(F)F)c(=O)[nH]c4c3)CC2)cn1 [Compound 95, N-(methyl-ds)-5-(4-((8-methyl-6-oxo-7-(trifluoromethyl)-5,6-dihydro-1,5-naphthyridin-3-yl)methyl)piperazin-1-yl)picolinamide]",2.13
13,"CNC(=O)c1ccc(C2=CCN(Cc3cnc4c(C)c(C(F)F)c(=O)[nH]c4c3)CC2)cn1 [Compound 106, 1′-((7-(difluoromethyl)-8-methyl-6-oxo-5,6-dihydro-1,5-naphthyridin-3-yl)methyl)-N-methyl-1′,2′,3′,6′-tetrahydro-[3,4′-bipyridine]-6-carboxamide]",0.78
14,"CNC(=O)c1ccc(N2CCN(Cc3cnc4c(C)c(C(F)(F)F)c(=O)[nH]c4c3)CC2CC#N)cn1 (stereo not shown) [Compound 73, 5-(2-(cyanomethyl)-4-((8-methyl-6-oxo-7-(trifluoromethyl)-5,6-dihydro-1,5-naphthyridin-3-yl)methyl)piperazin-1-yl)-N-methylpicolinamide]",14.5
15,"CNC(=O)c1ccc(N2CCN(Cc3cnc4c(C)c(C(F)F)c(=O)[nH]c4c3)[C@H](C)C2)cn1 [Compound 104, (R)-5-(4-((7-(difluoromethyl)-8-methyl-6-oxo-5,6-dihydro-1,5-naphthyridin-3-yl)methyl)-3-methylpiperazin-1-yl)-N-methylpicolinamide]",6.5

# Tested on: not listed separately
# Experiment: Evaluation of pharmacokinetics in mice
# Details: male, ICR (CD1), mouse, plasma, po, 10 mg/kg
SMILES,AUC(0-inf) [µg·h/mL],Cmax [ng/mL],half-life [h]
"[2H]C([2H])([2H])NC(=O)c1ccc(N2CCN(Cc3cnc4c(C)c(C(F)(F)F)c(=O)[nH]c4c3)CC2)cn1 [Compound 95, N-(methyl-ds)-5-(4-((8-methyl-6-oxo-7-(trifluoromethyl)-5,6-dihydro-1,5-naphthyridin-3-yl)methyl)piperazin-1-yl)picolinamide]",2050,37500,38

# From US20250051324A1, “PARP INHIBITOR, PHARMACEUTICAL COMPOSITION COMPRISING SAME, AND USE THEREOF” (KEYTHERA (SUZHOU) BIO-PHARMACEUTICALS CO., LIMITED, priority 2021, published 2025)
